We go through 31 compounds from patent US10251889B2, “Substituted pyrazolo[1,5-a]pyrimidine compounds as Trk kinase inhibitors” (Array BioPharma, Inc., priority 2009, dated 2019).

Chain of Jak2 (human Jak2 kinase domain, amino acids 808-1132) (O60674 808-1132): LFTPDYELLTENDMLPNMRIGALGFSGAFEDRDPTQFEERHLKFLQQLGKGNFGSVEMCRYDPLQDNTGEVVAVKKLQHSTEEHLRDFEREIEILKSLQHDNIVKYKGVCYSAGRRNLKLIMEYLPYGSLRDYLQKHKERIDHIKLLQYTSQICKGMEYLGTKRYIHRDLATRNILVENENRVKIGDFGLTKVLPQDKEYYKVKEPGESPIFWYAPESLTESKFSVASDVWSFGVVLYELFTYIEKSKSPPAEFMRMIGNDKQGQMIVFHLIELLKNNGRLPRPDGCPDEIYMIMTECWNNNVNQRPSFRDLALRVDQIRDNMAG

This assay addresses Jak2 (human Jak2 kinase domain, amino acids 808-1132) (Homo sapiens (Human), UniProt O60674). In words: Jak2 inhibition assay (Omnia kinase assay). In kind it is biochemical. Conditions: read-out: Jak2 Enzyme (% inhibition at 1000 nM), Table 1; 1000 nM test compound.
Usually inhibition stands for the change of the read-out against control, counted positive when it falls. As for `O=C(c1cnn2ccc(N3CCC[C@@H]3c3cc(F)ccc3F)nc12)N1CC[C@H](O)C1` [Example 18, (5-((R)-2-(2,5-difluorophenyl)pyrrolidin-1-yl)pyrazolo[1,5-a]pyrimidin-3-yl)((S)-3-hydroxypyrrolidin-1-yl)methanone], the inhibition at 1 µM turned out to be 2.8%. With `O=C(N[C@@H]1CCCC[C@H]1O)c1cnn2ccc(N3CCC[C@@H]3c3cncc(F)c3)nc12` [Example 136, 5-((R)-2-(5-fluoropyridin-3-yl)pyrrolidin-1-yl)-N-((1R,2R)-2-hydroxycyclohexyl)pyrazolo[1,5-a]pyrimidine-3-carboxamide] the figure was 4.8%; with `O=C(Nc1ccc(F)cn1)c1cnn2ccc(N3CCC[C@@H]3c3cncc(F)c3)nc12` [Example 95, (R)—N-(5-fluoropyridin-2-yl)-5-(2-(5-fluoropyridin-3-yl)pyrrolidin-1-yl)pyrazolo[1,5-a]pyrimidine-3-carboxamide], 19.2%. The result for `CC(C)(C)NC(=O)c1cnn2ccc(N3CCC[C@@H]3c3cncc(F)c3)nc12` [Example 53, (R)—N-tert-butyl-5-(2-(5-fluoropyridin-3-yl)pyrrolidin-1-yl)pyrazolo[1,5-a]pyrimidine-3-carboxamide] reads 8.7%. The result for `NC(=O)c1cnn2ccc(N3CCC[C@@H]3c3cc(F)cc(OCCN4CCOCC4)c3)nc12` [Example 76, (R)-5-(2-(3-fluoro-5-(2-morpholinoethoxy)phenyl)pyrrolidin-1-yl)pyrazolo[1,5-a]pyrimidine-3-carboxamide] reads 4.8%; that for `Cc1cccnc1NC(=O)c1cnn2ccc(N3CCC[C@@H]3c3cc(F)ccc3F)nc12` [Example 3, (R)-5-(2-(2,5-difluorophenyl)pyrrolidin-1-yl)-N-(3-methylpyridin-2-yl)pyrazolo[1,5-a]pyrimidine-3-carboxamide], 10.1%. Consider `C[C@@H](CO)NC(=O)c1cnn2ccc(N3CCC[C@@H]3c3cncc(F)c3)nc12` [Example 116, 5-((R)-2-(5-fluoropyridin-3-yl)pyrrolidin-1-yl)-N-((S)-1-hydroxypropan-2-yl)pyrazolo[1,5-a]pyrimidine-3-carboxamide], for which the inhibition at 1 µM was 4.7%.

`O=C(NC1CC1)c1cnn2ccc(N3CCC[C@@H]3c3cc(F)ccc3OCC(O)CO)nc12` (stereo partly drawn) [Example 210, N-cyclopropyl-5-((2R)-2-(2-(2,3-dihydroxypropoxy)-5-fluorophenyl)pyrrolidin-1-yl)pyrazolo[1,5-a]pyrimidine-3-carboxamide]: the inhibition at 1 µM turned out to be 32.3%. On to `COc1ccc(F)cc1[C@H]1CCCN1c1ccn2ncc(C(=O)NCCN3CCOCC3)c2n1` [Example 54, (R)-5-(2-(5-fluoro-2-methoxyphenyl)pyrrolidin-1-yl)-N-(2-morpholinoethyl)pyrazolo[1,5-a]pyrimidine-3-carboxamide], for which the inhibition at 1 µM was 23%. For `CC(C)NC(=O)c1cnn2ccc(N3[C@H](CO)CC[C@@H]3c3cncc(F)c3)nc12` [Example 215, 5-((2R,5S)-2-(5-fluoropyridin-3-yl)-5-(hydroxymethyl)pyrrolidin-1-yl)-N-isopropylpyrazolo[1,5-a]pyrimidine-3-carboxamide], the inhibition at 1 µM came to 28.3%. On to `Cn1cc(F)cc([C@H]2CCCN2c2ccn3ncc(C(=O)Nc4cccnc4)c3n2)c1=O` [Example 231, (R)-5-(2-(5-fluoro-1-methyl-2-oxo-1,2-dihydropyridin-3-yl)pyrrolidin-1-yl)-N-(pyridin-3-yl)pyrazolo[1,5-a]pyrimidine-3-carboxamide], for which the inhibition at 1 µM was 26.6%. Turning to `CC1(O)CN(C(=O)c2cnn3ccc(N4CCC[C@@H]4c4cncc(F)c4)nc23)C1` [Example 92, (R)-(5-(2-(5-fluoropyridin-3-yl)pyrrolidin-1-yl)pyrazolo[1,5-a]pyrimidin-3-yl)(3-hydroxy-3-methylazetidin-1-yl)methanone], the inhibition at 1 µM was found to be 0.5%.

Take `N#CCNC(=O)c1cnn2ccc(N3CCC[C@@H]3c3cc(F)ccc3F)nc12` [Example 39, (R)—N-(cyanomethyl)-5-(2-(2,5-difluorophenyl)pyrrolidin-1-yl)pyrazolo[1,5-a]pyrimidine-3-carboxamide]: the inhibition at 1 µM came to 30.4%. For the compound `O=C(N[C@H]1CC[C@H](O)CC1)c1cnn2ccc(N3CCC[C@@H]3c3cc(F)ccc3F)nc12` [Example 7, 5-((R)-2-(2,5-difluorophenyl)pyrrolidin-1-yl)-N-((trans)-4-hydroxycyclohexyl)pyrazolo[1,5-a]pyrimidine-3-carboxamide], the inhibition at 1 µM turned out to be 90%. As for `C[C@@H](NC(=O)c1cnn2ccc(N3[C@H](CO)CC[C@@H]3c3cncc(F)c3)nc12)C(F)(F)F` [Example 212, 5-((2R,5S)-2-(5-fluoropyridin-3-yl)-5-(hydroxymethyl)pyrrolidin-1-yl)-N—((R)-1,1,1-trifluoropropan-2-yl)pyrazolo[1,5-a]pyrimidine-3-carboxamide], the inhibition at 1 µM amounted to 14.2%. For `COc1ncc(F)cc1[C@H]1CCCN1c1ccn2ncc(C(N)=O)c2n1` [Example 82, (R)-5-(2-(5-fluoro-2-methoxypyridin-3-yl)pyrrolidin-1-yl)pyrazolo[1,5-a]pyrimidine-3-carboxamide], the inhibition at 1 µM stood at 10.7%. The result for `C[C@H](NC(=O)c1cnn2ccc(N3CCC[C@@H]3c3cc(F)cn(C)c3=O)nc12)C1CC1` [Example 236, N-((S)-1-cyclopropylethyl)-5-((R)-2-(5-fluoro-1-methyl-2-oxo-1,2-dihydropyridin-3-yl)pyrrolidin-1-yl)pyrazolo[1,5-a]pyrimidine-3-carboxamide] reads 69.1%. Take `Cn1cc(CNC(=O)c2cnn3ccc(N4CCC[C@@H]4c4cc(F)ccc4F)nc23)cn1` [Example 22, (R)-5-(2-(2,5-difluorophenyl)pyrrolidin-1-yl)-N-((1-methyl-1H-pyrazol-4-yl)methyl)pyrazolo[1,5-a]pyrimidine-3-carboxamide]: the inhibition at 1 µM amounted to 9.8%.

In the case of `Cc1ncc(F)cc1[C@H]1CCCN1c1ccn2ncc(C(=O)NC3(CO)CC3)c2n1` [Example 193, (R)-5-(2-(5-fluoro-2-methylpyridin-3-yl)pyrrolidin-1-yl)-N-(1-(hydroxymethyl)cyclopropyl)-pyrazolo[1,5-a]pyrimidine-3-carboxamide], the inhibition at 1 µM came out at 8.4%. Consider `C[C@H](O)CNC(=O)c1cnn2ccc(N3CCC[C@@H]3c3cc(F)ccc3F)nc12` [Example 166, 5-((R)-2-(2,5-difluorophenyl)pyrrolidin-1-yl)-N-(2-hydroxypropyl)pyrazolo[1,5-a]pyrimidine-3-carboxamide], for which the inhibition at 1 µM amounted to 13.8%. The result for `O=C(NOCC1CC1)c1cnn2ccc(N3CCC[C@@H]3c3cc(F)ccc3F)nc12` [Example 66, (R)—N-(cyclopropylmethoxy)-5-(2-(2,5-difluorophenyl)pyrrolidin-1-yl)pyrazolo[1,5-a]pyrimidine-3-carboxamide] reads 24.7%; that for `NC(=O)c1cnn2ccc(N3CCC[C@@H]3c3cc(F)ccc3OCCN3CCOCC3)nc12` [Example 86, (R)-5-(2-(5-fluoro-2-(2-morpholinoethoxy)phenyl)pyrrolidin-1-yl)pyrazolo[1,5-a]pyrimidine-3-carboxamide], 17.3%; that for `O=C(c1cnn2ccc(N3CCC[C@@H]3c3cncc(F)c3)nc12)N1CCC1` [Example 126, (R)-azetidin-1-yl(5-(2-(5-fluoropyridin-3-yl)pyrrolidin-1-yl)pyrazolo[1,5-a]pyrimidin-3-yl)methanone], -1%.

Turning to `C[C@H](O)[C@H](CO)NC(=O)c1cnn2ccc(N3CCC[C@@H]3c3cc(F)ccc3F)nc12` [Example 175, 5-((R)-2-(2,5-difluorophenyl)pyrrolidin-1-yl)-N-((2S,3S)-1,3-dihydroxybutan-2-yl)pyrazolo[1,5-a]pyrimidine-3-carboxamide], the inhibition at 1 µM was determined as 3.8%. On to `CNC(=O)c1cnn2ccc(N3CCC[C@@H]3c3cc(F)ccc3F)nc12` [Example 10, (R)-5-(2-(2,5-difluorophenyl)pyrrolidin-1-yl)-N-methylpyrazolo[1,5-a]pyrimidine-3-carboxamide], for which the inhibition at 1 µM worked out at 47.5%.

`Cn1cc(F)cc([C@H]2CCCN2c2ccn3ncc(C(=O)Nc4ccc(F)cn4)c3n2)c1=O` [Example 239, (R)-5-(2-(5-fluoro-1-methyl-2-oxo-1,2-dihydropyridin-3-yl)pyrrolidin-1-yl)-N-(5-fluoropyridin-2-yl)pyrazolo[1,5-a]pyrimidine-3-carboxamide]: the inhibition at 1 µM stood at 15.5%. Turning to `COc1ncc(F)cc1[C@H]1CCCN1c1ccn2ncc(C(=O)NCC(O)CO)c2n1` (stereo partly drawn) [Example 149, N-(2,3-dihydroxypropyl)-5-((R)-2-(5-fluoro-2-methoxypyridin-3-yl)pyrrolidin-1-yl)pyrazolo[1,5-a]pyrimidine-3-carboxamide], the inhibition at 1 µM was 10.2%.

Regarding `O=C(NC1CC1)c1cnn2ccc(N3CCC[C@@H]3c3cc(F)ccc3OCCN3CCOCC3)nc12` [Example 87, (R)—N-cyclopropyl-5-(2-(5-fluoro-2-(2-morpholinoethoxy)phenyl)pyrrolidin-1-yl)pyrazolo[1,5-a]pyrimidine-3-carboxamide], the inhibition at 1 µM amounted to 37.2%. The result for `COc1ncc(F)cc1[C@H]1CCCN1c1ccn2ncc(C(=O)NC[C@@H](C)O)c2n1` [Example 157, 5-((R)-2-(5-fluoro-2-methoxypyridin-3-yl)pyrrolidin-1-yl)-N-((R)-2-hydroxypropyl)pyrazolo[1,5-a]pyrimidine-3-carboxamide] reads 9.6%; that for `CC(C)(C)NC(=O)c1cnn2ccc(N3CCC[C@@H]3c3cc(F)ccc3F)nc12` [Example 1, (R)—N-tert-butyl-5-(2-(2,5-difluorophenyl)pyrrolidin-1-yl)pyrazolo[1,5-a]pyrimidine-3-carboxamide], 39.5%; that for `C[C@H](NC(=O)c1cnn2ccc(N3[C@@H](c4cncc(F)c4)CC[C@@]3(C)CO)nc12)C(F)(F)F` [Example 220, 5-((2S,5R)-5-(5-fluoropyridin-3-yl)-2-(hydroxymethyl)-2-methylpyrrolidin-1-yl)-N—((S)-1,1,1-trifluoropropan-2-yl)pyrazolo[1,5-a]pyrimidine-3-carboxamide], 15.2%.
